# Assay results published in US20160145242A1, “PHENYLIMIDAZOLE DERIVATIVE, AND THERAPEUTIC MEDICINE OR PREVENTIVE MEDICINE FOR INFLAMMATORY DISEASE, ETC” (NIPPON SODA CO., LTD., priority 2013, published 2016).
# Test system: mouse model of retinal light disorders
# Test: Retinal light disorder model test (ONL thickness)
# Assay type: in vivo
# Details: BALB/cCr male mouse, 30 mg/kg oral 30 minutes before 2 hours white light, eyes taken after 4 days
# Procedure: (Retinal Light Disorder Model Test)
# The usefulness (improvement rate with respect to retinal light disorders) of the compound of the invention was evaluated using a mouse model of retinal light disorders, generally used as a model of retinal light disorders, (Investigative Ophthalmology & Visual Science, 2002; vol. 43; pp. 1162 to 1167). Here, the improvement rate with respect to the retinal light disorders was calculated based on the thickness of an outer nuclear layer (hereinafter, referred to as “ONL”), which is strongly interfered especially by light application among a retinal cell layers, in a tissue specimen of a perpendicular surface of an eyeball.
# Moreover, in the present test, the ONL of a light application group to which only a base was administered was degraded to 30% to 50% of a normal light group.
# A test compound was dissolved or suspended in a solvent (1% (w/v) methyl cellulose aqueous solution) and then an administration liquid was prepared so that the test compound to be 30 mg/kg body weight. The dose was set to 10 ml/kg body weight.
# A 5-week-old BALB/cCr-based male mouse (weight of approximately 20 g) was bred in a dark place for 48 hours. Subsequently, the test compound administration liquid was orally administered (30 mg/kg). After 30 minutes, […] of white light was continuously applied to the mouse for 2 hours. Next, the mouse was bred in a breeding room with 50 lux of light for 4 days.
# An anesthetic (secobarbital sodium) was intraperitoneally administered to anesthetize the mouse and then the mouse was exsanguinated to die. The top portion of the right eyeball was marked with a thread and the eyeball was extracted. […]
# The ONL thickness in the tissue specimen was measured for every 200 μm between the optic nerve papilla to where upwardly spaced by 1 mm from the optic nerve papilla using Lumina Vision. The area (AUC) from the optic nerve papilla to where upwardly spaced by 1 mm from the optic papilla in the graph was calculated as an ONL area. […]
smiles,measurement,value
"CC(=O)NC1CCN(c2ccc(N)c(-n3ccnc3)c2)C1 (centres unmarked) [Compound 3-1, 3-acetylamino-1-(4-amino-3-imidazole-1-yl-phenyl)pyrrolidine]",ONL thickness improvement rate,87.2%
"CC(=O)N1CCN(c2ccc([N+](=O)[O-])c(-n3ccnc3)c2)CC1 [2-imidazole-1-yl-4-(acetylpiperazine-1-yl)nitrobenzene, reference compound]",ONL thickness improvement rate,29.2%
